Consider two molecules from patent US20220119399A1, “COMPOUNDS AND COMPOSITIONS THAT CAUSE MYCN AND/OR CMYC DEGRADATION AND METHODS OF USE THEREOF” (THE TRUSTEES OF COLUMBIA UNIVERSITY IN THE CITY OF NEW YORK, priority 2018, published 2022).

In one series the test system is SK-N-Be2 cells. Nature of the series: Cell viability assay (CellTiterGlo) in SK-N-Be2 cells. Particulars: SK-N-Be2 cells. The class given is cell-based, human.
For another series, the system named is MYCN transcript. As to the kind of experiment: RNASeq analysis of SK-N-Be2 cells, MYCN transcript. Particulars: 3 μM or 10 μM, 3 h and 6 h. In kind it is cell-based, human. How it is done:
(§1) To uncover changes in gene expression that underpin responses to pomiferin and isopomiferin, RNASeq analysis of SK-N-Be2 cells was performed following treatment with the two active prenylated isoflavonoids as well as a null analog that served as a negative control. SK-N-Be2 cells were treated with either 3 μM or 10 μM of isopomiferin or pomiferin and sampled after 3 h and 6 h. […] By comparing the active to the null analogs, downstream analyses can focus on changes in gene expression associated with the MYCN signature.

In another series the test system is TEAD4 transcript. As to the kind of experiment: RNASeq analysis of SK-N-Be2 cells, TEAD4 transcript. In kind it is cell-based, human. The following applies: 3 μM or 10 μM, 3 h and 6 h. How it is done:
as §1

Another series relates to MYCNA tumor xenografts. As to the kind of experiment: Tumor growth of MYCNA tumor xenografts. The class given is in vivo, mouse. Particulars: daily i.p. 20 mg/kg, 21 days, versus vehicle-only control. The method, then:
6-week old male mice were purchased from Charles River Laboratories, and housed in Columbia University's animal control barrier facilities, and mice were allowed one week to acclimate to their new environment. To establish tumor xenografts, 10×10^6 SK-N-Be2 cells were suspended in a 200 μL volume of 50% matrigel slurry. […] Mice were kept on standard chow diet (Purina), and their cage dressing changed twice weekly. Animals were investigated regularly for any sign of discomfort. […] To create the stock solution of isopomiferin, 5 mg of isopomiferin (MicroSource) was dissolved into 50 μL dimethyl sulfoxide (DMSO). To this 450 μL of cyclodextrin solution was added dropwise. Cyclodextrin is dissolved as a 50% w/v solution in 40% EtOH. It is important to add the cyclodextrin slowly and with continual mixing to solubilize the compound. This solution was added to one volume of PBS and filter-sterilized. This solution was then diluted to achieve appropriate concentrations for a 200 μL volume administration at 10 mg/kg to each mouse. The solution was administered to animals via intraperitoneal injection (i.p.). […]
The ability of the compounds to inhibit growth of MYCNA tumor xenografts was evaluated by treating tumor bearing mice with daily i.p. injections of 20 mg/kg isopomiferin or pomiferin. […] MYCN abundance was evaluated mid-experiment, following 14 days of treatment.

Series [1] deals with NCI-H69, NCI-H526, NCI-H4414 and A549 cells. Nature of the series: Cell viability of four lung cancer cell lines. The class given is cell-based. The following applies: dose series. How it is done: Neuroblastoma (SK-N-Be2; IMR-32; NLF; SK-N-AS) and lung cancer cell lines (NCI-H69; NCI-H526; NCI-H441-4) were grown in Advanced RPMI medium (Life Technologies) supplemented with 10% FBS (Gibco), 1% GlutaMAX (Gibco), and 1% Penicillin/Streptomycin. A549 cells (NSCLC) was grown in F-12K medium (Gibco) with 10% FBS (Gibco), and 1% Penicillin/Streptomycin. Cell cultures were incubated at 37° C. with 5% CO2. For chemical screening, cells were trypsinized, counted and seeded into white opaque 384-well plates (Perkin Elmer) at a density of 1000 cells/well and incubated overnight. […] Cells were treated for 72 hrs, after which cell viability was determined using CellTiterGlo® luminescence assay, following the manufacturer's instructions (Promega). […] Cell viability data were analyzed and charted using PRISM v7.0 software (GraphPad). The dose-response curves were used to generate an inhibitory constant (IC50) value, which was averaged across the two cell lines from each subtype (ie: SK-N-AS and NLF as MESN NBL subtype; IMR-32 and SK-N-Be2 as MycN^AMP subtype). The IC50 values for each subtype were used to evaluate subtype selectivity of each compound, and identify compounds with enhanced potency in MycN^AMP NBL.

The target of another series is T1, CK2a1 (Homo sapiens, UniProt P68400).
T1 construct: purchased Reaction Biology Corporation (Malvern, Pa.)
T1 sequence (P68400 whole entry): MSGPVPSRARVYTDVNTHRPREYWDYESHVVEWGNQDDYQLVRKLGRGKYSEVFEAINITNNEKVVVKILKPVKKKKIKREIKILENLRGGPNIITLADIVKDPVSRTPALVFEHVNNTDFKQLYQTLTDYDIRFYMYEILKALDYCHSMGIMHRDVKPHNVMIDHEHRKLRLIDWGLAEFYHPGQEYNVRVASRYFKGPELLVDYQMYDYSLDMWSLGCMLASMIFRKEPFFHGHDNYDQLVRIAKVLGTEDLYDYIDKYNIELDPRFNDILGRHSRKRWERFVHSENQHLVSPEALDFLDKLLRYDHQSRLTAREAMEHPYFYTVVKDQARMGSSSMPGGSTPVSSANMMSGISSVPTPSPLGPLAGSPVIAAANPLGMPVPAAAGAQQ
Nature of the series: Cell-free biochemical CK2a1 kinase assay. The following applies: for IC50: read-out: IC50 of CK2a kinase activity. The method, then:
Cell-free biochemical kinase assays were performed at Reaction Biology Corporation (Malvern, Pa.). In brief, kinase substrates were diluted into reaction buffer containing 20 mM Hepes (pH 7.5), 10 mM MgCl2, 1 mM EGTA, 0.02% Brij35, 0.02 mg/ml BSA, 0.1 mM Na3VO4, 2 mM DTT, 1% DMSO. Purified protein (CK2a1, CK2a2, or mTOR) was added to the substrate solution and gently mixed. Test compounds were diluted from 10 mM DMSO stock solutions into the reaction buffer using an Echo550 acoustic dispenser, followed by incubation at RT for 20 min. 33P-ATP (10 μCi/μL) was added to reaction mixture, following incubation for 2 h at RT. Reactions were then spotted onto P81 ion exchange paper and kinase activity was detected by filter binding method.

Series [2] in a line: Metabolic stability in mouse liver microsomes. The class given is in vitro ADME. The method, then:
Mouse liver microsomes (Xenotech) were diluted to 0.5 mg/mL in a solution containing 100 mM PBS buffer at 7.4 pH, an NADPH regenerating system (Promega), and test compounds at 20 μM. The mixture was incubated at 37° C. under gentle rotation for the indicated time points. The reaction was quenched by aliquoting 15 μL of solution into 60 μL ice-cold acetonitrile containing an internal standard. Test compounds were quantified by LC-MS using a system comprised of a Thermo Scientific Dionex Ultimate 3000 and a Bruker amaZon SL equipped with an electrospray ionization source controlled by a Bruker Hystar 3.2. Compounds were separated by injecting 20 μL of sample onto an Agilent Eclipse Plus C18 column (2.1×50 mm, […]) maintained at 20° C., with the flow rate set at 400 μL/min. Initial flow conditions were 60% solvent A (MilliQ H2O, 0.1% acetic acid), and 40% solvent B (HPLC-grade MeOH, 0.1% acetic acid). Solvent B was raised to 60% over 0.25 min and to 70% by 6.75 min. Solvent B was raised to 95% by 7 min and lowered back to 40% by 8 minutes; total run time was 9 min.
(In general: Microsomes from liver hold many membrane-bound enzymes, among them those of drug oxidation.)

For a further series, the system named is MYC protein. Nature of the series: Western blot of MYC protein in SCLC lines NCI-H69 and NCI-H209. The class given is cell-based. The following applies: NCI-H69 and NCI-H209, 24 h. The source says: Membranes were blocked using Odyssey Blocking Buffer (LI-COR) for 1 hr at room temperature. […] Primary antibodies used in these studies include: MycN (CST; 1:500 dilution), Actin (SCBT; 1:2000 dil.), cMYC (CST; 1:500 dil.), pAKT (S473; CST; 1:500 dil.), AKT (CST; 1:2000), pP70 (T389; CST; 1:1000) P70 (CST; 1:1000).
Background: A western blot detects proteins with antibodies after separation by electrophoresis.

“Also recorded” adds a separate entry of the source.

As to `CC1(C)C=Cc2c(c3c(c4c(=O)c(-c5ccc(O)c(O)c5)coc24)OC(C)(C)CC3)O1` [isopomiferin], in the series on SK-N-Be2 cells (determined empirically), it took 10 µM to reach the 20% level (IC20). For the same molecule, the “MYCN transcript abundance (RNASeq)” value in the series on MYCN transcript is recorded as “suppressed MYCN transcript abundance”. The “TEAD4 transcript (RNASeq)” value in the series on TEAD4 transcript was “did not affect TEAD4”. Also, the tumor growth result in the series on MYCNA tumor xenografts is given as “these differences were not significant”. In addition, in series [1], the “sensitivity of MycN-expressing versus non-expressing lung cancer lines (cell viability)” value was “the MycN-expressing lines were more sensitive to isopomiferin treatment”. For the same molecule, the IC50 (in general, the concentration that inhibits the measured activity by half) on CK2a1 was roughly 7 µM. For the same molecule, the “compound remaining in mouse liver microsomes” value in series [2] (mouse, microsomes, 2 h) is on record as roughly 50%. Besides, the “MYC protein abundance in SCLC lines” value with MYC protein was “suppressed MYC protein in both SCLC lines”.
With `CC(C)=CCc1c2c(c3occ(-c4ccc(O)c(O)c4)c(=O)c3c1O)C=CC(C)(C)O2` [pomiferin], the “inhibition of SK-N-Be2 cell viability (rank or activity in words)” value with SK-N-Be2 cells (72 hrs) is “the most potent compound of the group; also recorded: the most potent inhibitor of viability”. For the same molecule, the “MYCN transcript abundance (RNASeq)” value with MYCN transcript is recorded as “suppressed MYCN transcript abundance”. The “TEAD4 transcript (RNASeq)” value in the series with TEAD4 transcript was “suppressed both MYCN and TEAD4 transcript”. Further, the tumor growth result in the series on MYCNA tumor xenografts is listed as “reduced rates of tumor proliferation that were significant from the vehicle-only control arm by day 19”. The “sensitivity of MycN-expressing versus non-expressing lung cancer lines (cell viability)” value in series [1] is on record as “MycN-driven cell lines were more sensitive to the compound”. Besides, on CK2a1, the CK2a1 kinase activity result is “inhibiting both isoforms equally in a concentration-dependent manner” and the half-maximal inhibitory concentration (IC50) was roughly 7 µM. Further, the “compound remaining in mouse liver microsomes” value in series [2] (2 h incubation, 0.5 mg/mL microsomes) is roughly 80%.
